Results: patent US6632616B2, “Compounds that selectively bind to expanded polyglutamine repeat domains and methods of use thereof” (Duke University, priority 2000, dated 2003)
Read-outs that look alike come from different tables or passages of the source. No end group written: not given here.

Assays:
Q81-YFP = experiment: Co-localization with Q81-YFP aggregates in co-transfected COS-7 cells; format: cell-based; conditions: co-expression, 48 hours after transfection
Protocol: (§1) The CAG repeat of the Qn-GFP vector (Onodera, O. et al. (1996) FEBS Letters 399, 135-139) were inserted into the XhoI and EcoRI sites of the pEYFP-N1 vector (Clontech, Palo Alto, Calif.) to construct the Qn-YFP vectors. The polyglutamine-binding peptide and control constructs were prepared by ligating synthetic oligonucleotides into the XhoI and BamHI sites of the pECFP-N1 vector (Clontech) to obtain glutamine binding peptide 1-CFP (QBP1-CFP), scrambled QBP1-CFP (SCR-CFP), and a computer-generated random peptide-CFP (RAN)-CFP. The insert of QBP1-CFP was duplicated by PCR to obtain a tandem repeat of QBP1-CFP ((QBP1)2-CFP). The sequence of all constructs was confirmed by DNA sequencing. The first methionine of YFP or CFP was changed to isoleucine by PCR site-directed mutagenesis to eliminate translation of the fluorescent protein without the polyglutamine domain. The sizes of the fluorescent fusion proteins were confirmed by western blotting.
COS-7 cells were grown and maintained in Dulbecco's modified Eagles' medium (DMEM) supplemented with 10% fetal calf serum (FCS). Cells were transfected with Effectene according to manufacturer's instructions (Qiagen GmbH, Hilden, Germany). Cells were examined 48 hours after transfection using a Zeiss fluorescence microscope equipped with YFP/CFP filter sets (Omega Optical Inc., Brattleboro, Vt.). The percentage of cells with aggregates was calculated by dividing the number of cells with aggregates by the total number of fluorescent cells, multiplied by 100. Cell viability was examined 48 hours after transfection using ehtidium homodimer (Molecular Probes, Eugene, Oreg.). Cells were incubated with 5 μM ethidium homodimer for 30 minutes (37° C.) and then examined under a fluorescence microscope equipped with a rhodamine filter set. Cells with nuclear fluorescence were counted as dead. In each experiment at least 200 transfected cells were counted. Cells expressing random peptide-CFP (RAN-CFP) and polyglutamine-YFP (Qn-YFP) were used as a control to calculate the relative difference in aggregate formation and cell death. […]

thio-Q62 = experiment: Thioredoxin-polyglutamine turbidity (aggregation) assay, thio-Q62; format: biochemical; conditions: for Ability to Inhibit Aggregation: 62 glutamines, 10 days; for inhibition of thio-Q62 aggregation (in words): turbidity at 405 nm, FIG. 2
Sequence of thio-Q62 (as listed by the source): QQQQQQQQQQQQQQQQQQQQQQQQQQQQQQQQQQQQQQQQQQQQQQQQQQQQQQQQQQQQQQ
Protocol: (§2) Turbidity assays were performed in 200 μl reactions consisting of thioredoxin-polyglutamine in PBS in 96-well, low protein binding plates. Plates were incubated at 4° C. and turbidity measured at 405 nm on a Thermo Max plate reader (Molecular Devices).
(§3) Peptides were synthesized at the Howard Hughes Medical Institute peptide sequencing facility at Duke University with an acetylated amino terminus and protection of tryptophan with BOC during synthesis. Identical results were obtained with peptides obtained from Bio-Synthesis Inc. (Lewisville, Tex.). Stock solutions of peptides were prepared fresh daily by dissolving in dimethyl sulfoxide at 2.5 mM and incubated with thioredoxin-polyglutamine protein at 0.25-25 μM.
(§4) To monitor thioredoxin-polyglutamine protein aggregation a turbidometric assay was developed, similar to the assays commonly used to study microtubule assembly and β-amyloid aggregation (Jarrett, J. T. et al. (1993) Biochem 32, 4693-4697; Sloboda, R. D. et al. (1976) Biochem 15, 4497-4505). Solutions of thio-Q62 and 81 protein increased turbidity in a polyglutamine length-, time- and concentration-dependent manner (FIG. 1B and C; Time dependence of aggregation of thioredoxin-polyglutamine with 81 glutamines not shown). […] The pelleted and retained material was confirmed as thioredoxin-polyglutamine fusion protein containing 62 or 81 glutamines on western blots probed with anti-thioredoxin or anti-polyglutamine antibody (not shown). In contrast, thioredoxin-polyglutamine protein containing 19 or 35 glutamines (thio-Q19 or 35) was not pelleted by centrifugation and was not trapped by a 0.22 μm filter.

thio-Q19 or 35 = experiment: Thioredoxin-polyglutamine turbidity assay, nonpathologic thio-Q19 or 35; format: biochemical
Protocol: as §2, §3, §4

Qn-YFP = experiment: Polyglutamine-YFP (Qn-YFP) aggregate formation in co-transfected COS-7 cells, all lengths; format: cell-based; conditions: co-expression, 48 hours after transfection, FIG. 4
Protocol: COS-7 cells examined 48 hours after transfection using a Zeiss fluorescence microscope with the CFP/YFP filter set from Omega Optical Inc. The percentage of cells with aggregates was calculated by counting the number of transfected cells containing aggregate and dividing by the total number of transfected cells multiplied times 100. In each experiment at least 200 transfected cells were counted. Experiments were repeated at least four times. Error bars represent standard errors. *=p<0.05;**=p<0.01 (Student's t-test)
as §1, with “The first methionine of YFP or CFP was changed to isoleucine by PCR site-directed mutagenesis to eliminate translation of the fluorescent protein without the polyglutamine domain. The sizes of the fluorescent fusion proteins were confirmed by western blotting.” left out
COS-7 cells were grown and maintained in Dulbecco's modified Eagles' medium (DMEM) supplemented with 10% fetal calf serum (FCS). […] Cells were examined 48 hours after transfection using a Zeiss fluorescence microscope equipped with YFP/CFP filter sets (Omega Optical Inc., Brattleboro, Vt.). The percentage of cells with aggregates was calculated by dividing the number of cells with aggregates by the total number of fluorescent cells, multiplied by 100. […] Cells were incubated with 5 μM ethidium homodimer for 30 minutes (37° C.) and then examined under a fluorescence microscope equipped with a rhodamine filter set. Cells with nuclear fluorescence were counted as dead. In each experiment at least 200 transfected cells were counted. […]

[1] = test system: Q57-YFP induced cell death; experiment: Q57-YFP induced cell death in co-transfected COS-7 cells (ethidium homodimer); format: cell-based; conditions: peptides fused to CFP, co-expressed; COS-7, 48 hours; ethidium homodimer
Protocol: FIG. 5. […] Open bar=cells co-transfected with Q57-YFP and RAN-CFP. Hatched bar=cells co-transfected with Q57-YFP and SCR-CFP. Filled bar=cells co-transfected with Q57-YFP and QBP1-CFP. Dotted bar=cells co-transfected with Q57-YFP and (QBPI)2-CFP. COS-7 cells examined 48 hours after transfection using a Zeiss fluorescence microscope with rhodamine filter set. The percentage of dead cells was calculated by counting the number of transfected cells stained with ethidium homodimer and dividing by the total number of transfected cells multiplied times 100. In each experiment at least 200 transfected cells were counted. Experiments were repeated at least three times. Error bars represent standard errors. *=p<0.05; **=p<0.01 (Student's t-test).
COS-7 cells were grown and maintained in Dulbecco's modified Eagles' medium (DMEM) supplemented with 10% fetal calf serum (FCS). Cells were transfected with Effectene according to manufacturer's instructions (Qiagen GmbH, Hilden, Germany). Cells were examined 48 hours after transfection using a Zeiss fluorescence microscope equipped with YFP/CFP filter sets (Omega Optical Inc., Brattleboro, Vt.). The percentage of cells with aggregates was calculated by dividing the number of cells with aggregates by the total number of fluorescent cells, multiplied by 100. Cell viability was examined 48 hours after transfection using ehtidium homodimer (Molecular Probes, Eugene, Oreg.). Cells were incubated with 5 μM ethidium homodimer for 30 minutes (37° C.) and then examined under a fluorescence microscope equipped with a rhodamine filter set. Cells with nuclear fluorescence were counted as dead. In each experiment at least 200 transfected cells were counted. Cells expressing random peptide-CFP (RAN-CFP) and polyglutamine-YFP (Qn-YFP) were used as a control to calculate the relative difference in aggregate formation and cell death. Experiments were repeated at least four times.
The relationship between polyglutamine protein aggregation and cell death is controversial. To determine whether QBP1 or tandem-QBP1 inhibit polyglutamine-induced cell death, cell membrane permeability to ethidium homodimer was assayed. The membranes of living cells are impermeable to ethidium homodimer and permeability to ethidium homodimer is a well-established measure of cell death. Ethidium homodimer undergoes a 30-fold increase in fluorescence upon binding to nucleic acid allowing easy detection with a fluorescence microscope using a rhodamine filter. QBP1 and tandem QBP1 ((QBP1)2) fused to CFP inhibit Q57-YFP induced cell death (FIG. 5). […] Similar results have also been observed with Q45- and Q81-YFP (not shown).

[2] = 5 μm peptide and 15 μM thio-polyglutamine

Sequence of Q81-YFP (as listed by the source): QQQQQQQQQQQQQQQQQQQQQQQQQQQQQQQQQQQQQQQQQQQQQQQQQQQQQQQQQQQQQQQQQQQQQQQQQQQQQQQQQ

For “RAN-CFP: computer-generated random peptide fused to cyan fluorescent protein (LSLMEFGCRGA; also: fused to cyan fluorescent protein)”, the “co-localization with Q81-YFP aggregates” value (Q81-YFP) was “did not co-localize”.
WKWWVWKWWP was tested, and the “Ability to Inhibit Aggregation” value (thio-Q62; [2]) was “++++ (++++ = full inhibition)”.
WKWWPGIF was tested, and the “inhibition of polyglutamine-thioredoxin aggregation (FIG. 6 and 7)” value (thio-Q62) was “retains full inhibitory activity”.
In the case of WKWWPWKWW, the “Ability to Inhibit Aggregation” value (thio-Q62; [2]) is reported as “+++ (+++ = 75% inhibition)”.
For WDWWPGIFD, the “Ability to Inhibit Aggregation” value (thio-Q62; [2]) was “++ (++ = 50% inhibition)”.
With WWWWPGIFD the “Ability to Inhibit Aggregation” value (thio-Q62; [2]) was “++ (++ = 50% inhibition)”.
In the case of “LSLMEFGCRGA [RAN, computer-generated random 11 amino acid peptide, reference compound]”, the “inhibition of thio-Q62 aggregation (in words)” value (thio-Q62) is reported as “did not inhibit aggregation” and the “effect on turbidity of nonpathologic thio-Q19 or 35” value (thio-Q19 or 35) is reported as “no effect”.
With WKWWPWKWW-TAT (WKWWPWKWWGGYGRKKRRQRRR) the “Ability to Inhibit Aggregation” value (thio-Q62; TAT-fused peptides, 10 μm peptide and 15 μM thio-polyglutamine) was “++++ (++++ = full inhibition)”.
For “(QBP1)2-CFP: tandem repeat of QBP1 fused to cyan fluorescent protein (SNWKWWPGIFDSNWKWWPGIFD; also: fused to cyan fluorescent protein)”, the “effect on percentage of cells with polyglutamine aggregates” value (Qn-YFP) was “more effective”.
With WPIWSKGNDWF [SCR, reference compound] the “inhibition of thio-Q62 aggregation (in words)” value (thio-Q62) was “did not inhibit aggregation”, the “effect on turbidity of nonpathologic thio-Q19 or 35” value (thio-Q19 or 35) was “no effect” and the “inhibition of Q57-YFP induced cell death” value [1] was “does not inhibit cell death”.
WLWWPGIFD was tested, and the “Ability to Inhibit Aggregation” value (thio-Q62; [2]) was “++ (++ = 50% inhibition)”.
For “WKWWFD [QBP1-M6FD, QBP1-M7FD with the proline removed]”, the “inhibition of polyglutamine-thioredoxin aggregation (FIG. 6 and 7)” value (thio-Q62; peptides at 1 and 10 microMolar) was “significant loss of activity”.
